Source: patent US12704504B2, “Derivatization of beta-lactam antibiotics as calibrators/ISTD in massspec measurements” (Roche Diagnostics Operations, Inc., priority 2019, dated 2026)

Test: Stability in water at room temperature, LC-MS/MS peak areas over 16 h
Format: physicochemical
Details: 5 μg/mL, 0-16 h
Source text: The stability of native Piperacillin as well as its hydrolyzed forms was investigated (compounds 5, 9a, 9b and 10, respectively. From the hydrolysis pathway of Piperacillin (compound 5, see schematic drawing in FIG. 1) it is obvious that this compound hydrolyzed both on the piperazin ring and the lactam moiety, only one of both compounds is monitored to account for the loss or degradation of native Piperacillin (compound 5)). To this end, these compounds were freshly weighed and dissolved in water at a concentration of 1 mg/mL by rolling or stirring for 15 minutes at room temperature. Subsequently, these compounds were diluted to 5 μg/mL and measured with a suitable LC-MS/MS method at timepoints 0, 2, 4, 6, 8 and 16 h. For this, a Sunshell C18 (2.6 μm, 2.1 mm×50 mm) column with Solvent A: water with 0.1% HCOOH and Solvent B: CH3CN with 0.1% HCOOH and a flow of 0.6 mL per minute were used on an Agilent Infinity II multisampler/Pump system connected to an AB Sciex 6500+MS. The peaks were integrated using MultiQuant software and the areas of these peaks depicted in the graphs in FIGS. 2A and 2B.
The stability of double butylamide variants of Piperacillin (compound 7, see FIG. 4) was investigated at 2 MRMs using the identical protocol as in Examples 1.

CCN1CCN(C(=O)N[C@@H](C(=O)N[C@@H]2C(=O)N3[C@@H]2SC(C)(C)[C@@H]3C(=O)O)c2ccccc2)C(=O)C1=O [Piperacillin]
course of obtained peak-areas over time: decreasing
